Assay results as given in ChEMBL document CHEMBL3797079, “Synergistic reduction of HIV-1 infectivity by 5-azacytidine and inhibitors of ribonucleotide reductase” (Bioorg Med Chem, 2016).
Calls of active or inactive are those of the source. The calls are words filed in the database; no cut-off is given here.

Assays:
[1] = test system: Human immunodeficiency virus 1; experiment: Antiviral activity against VSV-G pseudotyped HIV-1 NL4-3 infected in human U373-MAGI cells assessed as Vif mutation at 260 uM incubated for 2 hrs prior to infection measured at 72 hrs post infection by illumina sequencing method (reference value: 19.2%); format: functional
[2] = test system: Human immunodeficiency virus 1; experiment: Antiviral activity against VSV-G pseudotyped HIV-1 NL4-3 infected in human U373-MAGI cells assessed as Pol mutation at 260 uM incubated for 2 hrs prior to infection measured at 72 hrs post infection by illumina sequencing method (reference value: 18.5%); format: functional
[3] = test system: Human immunodeficiency virus 1; experiment: Antiviral activity against VSV-G pseudotyped HIV-1 NL4-3 infected in human U373-MAGI cells assessed as increase in frequency of G to C transversion at 260 uM incubated for 2 hrs prior to infection measured at 72 hrs post infection by illumina sequencing method relative to control; format: functional
[4] = test system: Human immunodeficiency virus 1; experiment: Antiviral activity against VSV-G pseudotyped HIV-1 NL4-3 infected in human U373-MAGI cells assessed as reduction in gag level at 25 to 400 uM after 2 to 72 hrs by qPCR method; format: functional, organism-based
[5] = test system: Human immunodeficiency virus 1; experiment: Antiviral activity against VSV-G pseudotyped HIV-1 NL4-3 infected in human U373-MAGI cells assessed as Gag mutation at 260 uM incubated for 2 hrs prior to infection measured at 72 hrs post infection by illumina sequencing method (reference value: 18.4%); format: functional
[6] = test system: Human immunodeficiency virus 1; experiment: Antiviral activity against VSV-G pseudotyped HIV-1 NL4-3 infected in human U373-MAGI cells assessed as Nef mutation at 260 uM incubated for 2 hrs prior to infection measured at 72 hrs post infection by illumina sequencing method (reference value: 22.6%); format: functional
[7] = test system: Human immunodeficiency virus 1; experiment: Antiviral activity against VSV-G pseudotyped HIV-1 NL4-3 infected in human U373-MAGI cells assessed as Env mutation at 260 uM incubated for 2 hrs prior to infection measured at 72 hrs post infection by illumina sequencing method (reference value: 21.4%); format: functional
[8] = test system: Human immunodeficiency virus 1; experiment: Antiviral activity against VSV-G pseudotyped HIV-1 NL4-3 infected in human U373-MAGI cells assessed as increase in frequency of C to G transversion at 260 uM incubated for 2 hrs prior to infection measured at 72 hrs post infection by illumina sequencing method relative to control; format: functional
[9] = test system: Human immunodeficiency virus 1; experiment: Antiviral activity against VSV-G pseudotyped HIV-1 NL4-3 infected in human U373-MAGI cells assessed as increase in mutation frequency at 260 uM incubated for 2 hrs prior to infection measured at 72 hrs post infection by illumina sequencing method; format: functional
[10] = test system: Human immunodeficiency virus 1; experiment: Antiviral activity against VSV-G pseudotyped HIV-1 NL4-3 infected in human U373-MAGI cells assessed as G to C transversion at 260 uM incubated for 2 hrs prior to infection measured at 72 hrs post infection by illumina sequencing method relative to control; format: functional
[11] = test system: Human immunodeficiency virus 1; experiment: Antiviral activity against VSV-G pseudotyped HIV-1 NL4-3 infected in human U373-MAGI cells assessed as reduction in U5-gag level at 25 to 400 uM after 2 to 72 hrs by qPCR method; format: functional, organism-based
[12] = test system: Human immunodeficiency virus 1; experiment: Antiviral activity against VSV-G pseudotyped HIV-1 NL4-3 infected in human U373-MAGI cells assessed as C to G transversion at 260 uM incubated for 2 hrs prior to infection measured at 72 hrs post infection by illumina sequencing method relative to control; format: functional
[13] = Reduction in dCTP level in human U373-MAGI cells at EC75 after 4 hrs by LC-MS/MS analysis relative to control; format: functional; design: scale not given: the % may be the effect or the level left
U373-MAGI [14] = experiment: Reduction in dGTP level in human U373-MAGI cells at 0.5 mM after 6 hrs by LC-MS/MS analysis; format: functional, cell-based
U373-MAGI [15] = experiment: Reduction in dCTP level in human U373-MAGI cells at 2 mM after 6 hrs by LC-MS/MS analysis; format: functional, cell-based
U373-MAGI [16] = experiment: Effect on 5-aza-dCTP level in human U373-MAGI cells at 2 mM preincubated for 2 hrs followed by 5-aza-dC addition measured after 4 hrs by LC-MS/MS analysis; format: functional, cell-based
U373-MAGI [17] = experiment: Increase in 5-aza-dCTP/dCTP ratio in human U373-MAGI cells at 2 mM preincubated for 2 hrs followed by 5-aza-C addition measured after 4 hrs by LC-MS/MS analysis relative to 5-aza-C; format: functional, cell-based
U373-MAGI [18] = experiment: Increase in 5-aza-dCTP/dCTP ratio in human U373-MAGI cells at 0.5 mM preincubated for 2 hrs followed by 5-aza-dC addition measured after 4 hrs by LC-MS/MS analysis relative to 5-aza-dC; format: functional, cell-based
U373-MAGI [19] = experiment: Reduction in dCTP level in human U373-MAGI cells at 2 mM preincubated for 2 hrs followed by 5-aza-dC addition measured after 4 hrs by LC-MS/MS analysis relative to 5-aza-dC; format: functional, cell-based
[20] = test system: Human immunodeficiency virus 1; experiment: Antiviral activity against VSV-G pseudotyped HIV-1 NL4-3 infected in human U373-MAGI cells assessed as reduction in viral infectivity at 500 uM incubated for 4 hrs prior to viral infection measured at 72 hrs post infection by flow cytometric analysis; format: functional, organism-based
U373-MAGI [21] = experiment: Effect on dRGU-TP level in human U373-MAGI cells at 2 mM preincubated for 2 hrs followed by 5-aza-dC addition measured after 4 hrs by LC-MS/MS analysis; format: functional, cell-based
U373-MAGI [22] = experiment: Reduction in dTTP level in human U373-MAGI cells at 2 mM after 6 hrs by LC-MS/MS analysis; format: functional, cell-based
U373-MAGI [23] = experiment: Reduction in dCTP level in human U373-MAGI cells at 0.5 mM preincubated for 2 hrs followed by 5-aza-dC addition measured after 4 hrs by LC-MS/MS analysis relative to 5-aza-dC; format: functional, cell-based
U373-MAGI [24] = experiment: Reduction in 5-aza-dCTP level in human U373-MAGI cells at 2 mM preincubated for 2 hrs followed by 5-aza-C addition measured after 4 hrs by LC-MS/MS analysis; format: functional, cell-based
U373-MAGI [25] = experiment: Increase in 5-aza-dCTP/dCTP ratio in human U373-MAGI cells at 0.5 mM preincubated for 2 hrs followed by 5-aza-C addition measured after 4 hrs by LC-MS/MS analysis relative to 5-aza-C; format: functional, cell-based
U373-MAGI [26] = experiment: Reduction in dRGU-TP level in human U373-MAGI cells at 0.5 mM preincubated for 2 hrs followed by 5-aza-C addition measured after 4 hrs by LC-MS/MS analysis; format: functional, cell-based
U373-MAGI [27] = experiment: Effect on dRGU-TP level in human U373-MAGI cells at 0.5 mM preincubated for 2 hrs followed by 5-aza-dC addition measured after 4 hrs by LC-MS/MS analysis; format: functional, cell-based
U373-MAGI [28] = experiment: Increase in 5-aza-dCTP/dCTP ratio in human U373-MAGI cells at 2 mM preincubated for 2 hrs followed by 5-aza-dC addition measured after 4 hrs by LC-MS/MS analysis relative to 5-aza-dC; format: functional, cell-based
U373-MAGI [29] = experiment: Reduction in dGTP level in human U373-MAGI cells at 2 mM after 6 hrs by LC-MS/MS analysis; format: functional, cell-based
U373-MAGI [30] = experiment: Effect on 5-aza-dCTP level in human U373-MAGI cells at 0.5 mM preincubated for 2 hrs followed by 5-aza-dC addition measured after 4 hrs by LC-MS/MS analysis; format: functional, cell-based
U373-MAGI [31] = experiment: Reduction in dATP level in human U373-MAGI cells at 0.5 mM after 6 hrs by LC-MS/MS analysis; format: functional, cell-based
U373-MAGI [32] = experiment: Reduction in 5-aza-dCTP level in human U373-MAGI cells at 0.5 mM preincubated for 2 hrs followed by 5-aza-C addition measured after 4 hrs by LC-MS/MS analysis; format: functional, cell-based
[33] = test system: Human immunodeficiency virus 1; experiment: Potentiation of 5-Aza-C-induced antiviral activity against VSV-G pseudotyped HIV-1 NL4-3 infected in human U373-MAGI cells assessed as decrease in 5-Aza-C EC50 at 500 uM preincubated for 2 hrs followed by 5-Aza-C addition for 2 hrs and subsequent viral infection measured at 72 hrs post infection by flow cytometric analysis relative to control; format: functional
U373-MAGI [34] = experiment: Reduction in dCTP level in human U373-MAGI cells at 2 mM preincubated for 2 hrs followed by 5-aza-C addition measured after 4 hrs by LC-MS/MS analysis relative to 5-aza-C; format: functional, cell-based
U373-MAGI [35] = experiment: Reduction in dCTP level in human U373-MAGI cells at 0.5 mM after 6 hrs by LC-MS/MS analysis; format: functional, cell-based
U373-MAGI [36] = experiment: Reduction in dATP level in human U373-MAGI cells at 2 mM after 6 hrs by LC-MS/MS analysis; format: functional, cell-based
U373-MAGI [37] = experiment: Reduction in dRGU-TP level in human U373-MAGI cells at 2 mM preincubated for 2 hrs followed by 5-aza-C addition measured after 4 hrs by LC-MS/MS analysis; format: functional, cell-based
U373-MAGI [38] = experiment: Reduction in dCTP level in human U373-MAGI cells at 0.5 mM preincubated for 2 hrs followed by 5-aza-C addition measured after 4 hrs by LC-MS/MS analysis; format: functional, cell-based
[39] = Cytotoxicity against human U373-MAGI cells at 500 uM measured at 72 hrs by Celltiter-Glo luminescent cell viability assay; format: cell-based
U373-MAGI [40] = experiment: Reduction in dTTP level in human U373-MAGI cells at 0.5 mM after 6 hrs by LC-MS/MS analysis; format: functional, cell-based
[41] = test system: Human immunodeficiency virus 1; experiment: Antiviral activity against VSV-G pseudotyped HIV-1 NL4-3 infected in human U373-MAGI cells assessed as reduction in U5-gag level at 0.25 to 8 uM after 2 to 72 hrs by qPCR method; format: functional, organism-based
[42] = test system: Human immunodeficiency virus 1; experiment: Antiviral activity against VSV-G pseudotyped HIV-1 NL4-3 infected in human U373-MAGI cells assessed as Env mutation at 3.8 uM incubated for 2 hrs prior to infection measured at 72 hrs post infection by illumina sequencing method (reference value: 21.4%); format: functional
[43] = test system: Human immunodeficiency virus 1; experiment: Antiviral activity against VSV-G pseudotyped HIV-1 NL4-3 infected in human U373-MAGI cells assessed as Nef mutation at 3.8 uM incubated for 2 hrs prior to infection measured at 72 hrs post infection by illumina sequencing method (reference value: 22.6%); format: functional
[44] = test system: Human immunodeficiency virus 1; experiment: Antiviral activity against VSV-G pseudotyped HIV-1 NL4-3 infected in human U373-MAGI cells assessed as Pol mutation at 3.8 uM incubated for 2 hrs prior to infection measured at 72 hrs post infection by illumina sequencing method (reference value: 18.5%); format: functional
[45] = test system: Human immunodeficiency virus 1; experiment: Antiviral activity against VSV-G pseudotyped HIV-1 NL4-3 infected in human U373-MAGI cells assessed as reduction in gag level at 0.25 to 8 uM after 2 to 72 hrs by qPCR method; format: functional, organism-based
[46] = test system: Human immunodeficiency virus 1; experiment: Antiviral activity against VSV-G pseudotyped HIV-1 NL4-3 infected in human U373-MAGI cells assessed as Gag mutation at 3.8 uM incubated for 2 hrs prior to infection measured at 72 hrs post infection by illumina sequencing method (reference value: 18.4%); format: functional
[47] = test system: Human immunodeficiency virus 1; experiment: Antiviral activity against VSV-G pseudotyped HIV-1 NL4-3 infected in human U373-MAGI cells assessed as Vif mutation at 3.8 uM incubated for 2 hrs prior to infection measured at 72 hrs post infection by illumina sequencing method (reference value: 19.2%); format: functional

## Nc1ncn([C@@H]2O[C@H](CO)[C@@H](O)[C@H]2O)c(=O)n1 [AZACITIDINE]
[1]
  Activity: 12.8%
[2]
  Activity: 25.8%
[3]
  fold change (FC): 67
[4]
  Activity: Active
[5]
  Activity: 17%
[6]
  Activity: 25.4%
[7]
  Activity: 19.1%
[8]
  fold change (FC): 43
[9]
  fold change (FC): 6.8
[10]
  Activity: 60%
[11]
  Activity: Active
[12]
  Activity: 10%
[13]
  Activity: 50%

## NC(=O)NO [HYDROXYUREA]
U373-MAGI [14]
  Activity: inactive
U373-MAGI [15]
  Activity: inactive
U373-MAGI [16]
  Activity: inactive
U373-MAGI [17]
  Activity: inactive
U373-MAGI [18]
  Activity: Active
U373-MAGI [19]
  Activity: Active
[20]
  Activity: Active
U373-MAGI [21]
  Activity: inactive
U373-MAGI [22]
  Activity: inactive
U373-MAGI [23]
  Activity: Active
U373-MAGI [24]
  Activity: inactive
U373-MAGI [25]
  Activity: Active
U373-MAGI [26]
  Activity: inactive
U373-MAGI [27]
  Activity: inactive
U373-MAGI [28]
  Activity: Active
U373-MAGI [29]
  Activity: inactive
U373-MAGI [30]
  Activity: inactive
U373-MAGI [31]
  Activity: inactive
U373-MAGI [32]
  Activity: inactive
[33]
  fold change (FC): 2.5
U373-MAGI [34]
  Activity: Active
U373-MAGI [35]
  Activity: inactive
U373-MAGI [36]
  Activity: Active
U373-MAGI [37]
  Activity: inactive
U373-MAGI [38]
  Activity: Active
[39]
  Activity: Non-toxic
U373-MAGI [40]
  Activity: inactive

## Nc1ncn([C@H]2C[C@H](O)[C@@H](CO)O2)c(=O)n1 [DECITABINE]
[41]
  Activity: Active
[42]
  Activity: 20.5%
[43]
  Activity: 21.5%
[13]
  Activity: 50%
[44]
  Activity: 26%
[45]
  Activity: Active
[46]
  Activity: 16%
[47]
  Activity: 15.9%
